Consider one molecule from ChEMBL document CHEMBL3864133, “Discovery of a Potent and Selective in Vivo Probe (GNE-272) for the Bromodomains of CBP/EP300” (J Med Chem, 2016).

Series [1] is described as follows: fCmax in nu/nu mouse at 100 mg/kg, po by LC-MS/MS analysis. It counts as ADME, organism-based. Particulars: in vivo.
In series [2] the target is Cytochrome P450 3A4 (Homo sapiens, UniProt P08684). As to the kind of experiment: Inhibition of CYP3A4 in human liver microsomes assessed as formation of 1-hydroxymidazolam from midazolam measured after 10 mins in presence of NADPH by LC-MS/MS analysis. In kind it is ADME. On the technique in general: Liver microsomes are a subcellular fraction often used to study metabolism.

Series [3] addresses Cytochrome P450 1A2 (Homo sapiens, UniProt P05177). The experiment in a line: Inhibition of CYP1A2 in human liver microsomes assessed as formation of acetaminophen from phenacetin measured after 30 mins in presence of NADPH by LC-MS/MS analysis. It counts as ADME. Particulars: 0.5 h.
The target of series [4] is Cytochrome P450 2C19 (Homo sapiens, UniProt P33261). The experiment in a line: Inhibition of CYP2C19 in human liver microsomes assessed as formation of 4-hydroxymephenytoin from mephenytoin measured after 40 mins in presence of NADPH by LC-MS/MS analysis. In kind it is ADME.
Series [5] addresses T1, CREB-binding protein/Histone acetyltransferase p300 (Homo sapiens, UniProt Q09472+Q92793). As to the kind of experiment: Inhibition of CBP/EP300 in human MOLM16 cells assessed as suppression of BCL2 expression at 5 uM measured after 4 hrs by RT-PCR analysis relative to DMSO control. In kind it is cell-based.
Series [6] has as its target T1, CREB-binding protein/Histone acetyltransferase p300. As to the kind of experiment: Inhibition of CBP/EP300 in human MOLM16 cells assessed as suppression of MCL1 expression at 5 uM measured after 4 hrs by RT-PCR analysis relative to DMSO control. In kind it is cell-based.
Series [7] relates to KMS34. As to the kind of experiment: Antiproliferative activity against human KMS34 cells measured after 6 days by CellTiter-Glo assay. In kind it is functional, cell-based.
Series [8] concerns Pfeiffer. As to the kind of experiment: Antiproliferative activity against human Pfeiffer cells measured after 6 days by CellTiter-Glo assay. In kind it is functional, cell-based. (ATP-based viability assays read luminescence as a measure of living cells.)
A short description of series [9]: Antitumor activity against human MOLM16 cells xenografted in SCID beige mouse assessed as tumor growth inhibition at 12.5 mg/kg, po BID administered through gavage for 21 days. In kind it is functional. The note with it: read-out: TGI. On the technique in general: Xenograft models place foreign cells or tissue in a host animal.
Series [10] in a line: Antitumor activity against human MOLM16 cells xenografted in SCID beige mouse assessed as tumor growth inhibition at 50 mg/kg, po BID administered through gavage for 21 days. In kind it is functional. Particulars: read-out: TGI.
Series [11] deals with Mus musculus. The experiment in a line: Toxicity in SCID beige mouse xenografted with human MOLM16 cells assessed as body weight loss at 12.5 to 50 mg/kg, po BID administered through gavage for 21 days. It counts as organism-based. Particulars: in vivo.

SMILES strings stand for the structures. The source made the active and inactive calls. The rule behind the calls is not given here. A value given as a limit tells only on which side of the number the result lay.

T1 sequence (Q09472 whole entry, looked up): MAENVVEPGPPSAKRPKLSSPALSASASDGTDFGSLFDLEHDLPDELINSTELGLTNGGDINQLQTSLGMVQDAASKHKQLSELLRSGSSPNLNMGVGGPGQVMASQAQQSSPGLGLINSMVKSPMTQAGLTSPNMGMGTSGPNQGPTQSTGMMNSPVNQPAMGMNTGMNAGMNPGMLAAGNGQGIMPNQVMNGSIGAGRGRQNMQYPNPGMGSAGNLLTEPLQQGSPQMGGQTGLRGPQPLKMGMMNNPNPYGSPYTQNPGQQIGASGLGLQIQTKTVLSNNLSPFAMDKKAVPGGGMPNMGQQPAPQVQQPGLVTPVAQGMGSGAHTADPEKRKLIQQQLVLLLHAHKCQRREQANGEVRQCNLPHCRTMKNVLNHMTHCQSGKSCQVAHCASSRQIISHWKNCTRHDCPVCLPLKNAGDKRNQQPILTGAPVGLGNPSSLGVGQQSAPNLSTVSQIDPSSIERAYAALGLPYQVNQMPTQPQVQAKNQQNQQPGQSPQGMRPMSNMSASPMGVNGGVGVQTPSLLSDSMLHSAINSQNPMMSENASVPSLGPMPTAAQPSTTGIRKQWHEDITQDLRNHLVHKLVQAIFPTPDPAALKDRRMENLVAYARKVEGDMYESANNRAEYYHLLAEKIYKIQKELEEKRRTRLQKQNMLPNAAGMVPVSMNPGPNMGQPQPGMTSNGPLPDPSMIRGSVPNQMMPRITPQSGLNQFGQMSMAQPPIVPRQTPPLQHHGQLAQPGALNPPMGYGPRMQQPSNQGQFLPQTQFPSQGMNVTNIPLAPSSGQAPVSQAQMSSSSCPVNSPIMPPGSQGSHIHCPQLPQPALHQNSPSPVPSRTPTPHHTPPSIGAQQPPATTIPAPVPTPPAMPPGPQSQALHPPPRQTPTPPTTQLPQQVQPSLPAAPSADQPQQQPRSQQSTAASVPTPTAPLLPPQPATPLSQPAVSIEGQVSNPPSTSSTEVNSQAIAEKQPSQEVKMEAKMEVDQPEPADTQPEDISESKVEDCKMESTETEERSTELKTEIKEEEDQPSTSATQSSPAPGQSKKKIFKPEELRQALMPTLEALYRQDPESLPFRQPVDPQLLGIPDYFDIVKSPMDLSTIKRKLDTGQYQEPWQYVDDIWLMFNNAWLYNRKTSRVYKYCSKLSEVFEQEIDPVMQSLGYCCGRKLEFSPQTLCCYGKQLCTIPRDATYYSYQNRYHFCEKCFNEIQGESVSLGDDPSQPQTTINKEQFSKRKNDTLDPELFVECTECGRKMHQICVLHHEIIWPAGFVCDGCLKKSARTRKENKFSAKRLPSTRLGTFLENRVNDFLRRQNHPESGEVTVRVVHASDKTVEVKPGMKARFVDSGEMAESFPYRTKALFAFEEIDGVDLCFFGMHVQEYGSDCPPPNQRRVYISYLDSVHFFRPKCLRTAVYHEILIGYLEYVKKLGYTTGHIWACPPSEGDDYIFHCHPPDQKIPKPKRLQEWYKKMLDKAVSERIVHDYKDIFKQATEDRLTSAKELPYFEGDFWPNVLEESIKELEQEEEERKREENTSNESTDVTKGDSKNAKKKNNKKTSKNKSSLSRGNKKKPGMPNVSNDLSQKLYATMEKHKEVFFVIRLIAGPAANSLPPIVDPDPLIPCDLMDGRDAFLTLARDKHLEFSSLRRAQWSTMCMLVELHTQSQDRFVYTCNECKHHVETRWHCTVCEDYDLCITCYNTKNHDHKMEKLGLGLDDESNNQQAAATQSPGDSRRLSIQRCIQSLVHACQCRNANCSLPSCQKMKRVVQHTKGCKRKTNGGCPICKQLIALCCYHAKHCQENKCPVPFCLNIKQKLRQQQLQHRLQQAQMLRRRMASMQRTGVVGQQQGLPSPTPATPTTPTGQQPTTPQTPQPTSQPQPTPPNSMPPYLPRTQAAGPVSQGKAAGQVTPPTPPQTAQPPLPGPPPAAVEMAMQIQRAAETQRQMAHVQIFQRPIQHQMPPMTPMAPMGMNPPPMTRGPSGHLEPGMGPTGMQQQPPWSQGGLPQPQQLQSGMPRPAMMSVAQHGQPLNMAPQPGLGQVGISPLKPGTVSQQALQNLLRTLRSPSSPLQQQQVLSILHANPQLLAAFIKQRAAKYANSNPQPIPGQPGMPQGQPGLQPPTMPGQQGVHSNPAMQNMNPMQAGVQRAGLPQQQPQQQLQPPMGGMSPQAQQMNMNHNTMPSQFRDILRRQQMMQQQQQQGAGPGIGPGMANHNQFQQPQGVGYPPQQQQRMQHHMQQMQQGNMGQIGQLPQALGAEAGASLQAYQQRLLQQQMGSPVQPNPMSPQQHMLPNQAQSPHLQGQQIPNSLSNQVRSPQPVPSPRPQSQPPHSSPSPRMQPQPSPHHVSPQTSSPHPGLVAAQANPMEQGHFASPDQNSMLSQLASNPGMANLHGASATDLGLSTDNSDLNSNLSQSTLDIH
T1 sequence (Q92793 whole entry, looked up): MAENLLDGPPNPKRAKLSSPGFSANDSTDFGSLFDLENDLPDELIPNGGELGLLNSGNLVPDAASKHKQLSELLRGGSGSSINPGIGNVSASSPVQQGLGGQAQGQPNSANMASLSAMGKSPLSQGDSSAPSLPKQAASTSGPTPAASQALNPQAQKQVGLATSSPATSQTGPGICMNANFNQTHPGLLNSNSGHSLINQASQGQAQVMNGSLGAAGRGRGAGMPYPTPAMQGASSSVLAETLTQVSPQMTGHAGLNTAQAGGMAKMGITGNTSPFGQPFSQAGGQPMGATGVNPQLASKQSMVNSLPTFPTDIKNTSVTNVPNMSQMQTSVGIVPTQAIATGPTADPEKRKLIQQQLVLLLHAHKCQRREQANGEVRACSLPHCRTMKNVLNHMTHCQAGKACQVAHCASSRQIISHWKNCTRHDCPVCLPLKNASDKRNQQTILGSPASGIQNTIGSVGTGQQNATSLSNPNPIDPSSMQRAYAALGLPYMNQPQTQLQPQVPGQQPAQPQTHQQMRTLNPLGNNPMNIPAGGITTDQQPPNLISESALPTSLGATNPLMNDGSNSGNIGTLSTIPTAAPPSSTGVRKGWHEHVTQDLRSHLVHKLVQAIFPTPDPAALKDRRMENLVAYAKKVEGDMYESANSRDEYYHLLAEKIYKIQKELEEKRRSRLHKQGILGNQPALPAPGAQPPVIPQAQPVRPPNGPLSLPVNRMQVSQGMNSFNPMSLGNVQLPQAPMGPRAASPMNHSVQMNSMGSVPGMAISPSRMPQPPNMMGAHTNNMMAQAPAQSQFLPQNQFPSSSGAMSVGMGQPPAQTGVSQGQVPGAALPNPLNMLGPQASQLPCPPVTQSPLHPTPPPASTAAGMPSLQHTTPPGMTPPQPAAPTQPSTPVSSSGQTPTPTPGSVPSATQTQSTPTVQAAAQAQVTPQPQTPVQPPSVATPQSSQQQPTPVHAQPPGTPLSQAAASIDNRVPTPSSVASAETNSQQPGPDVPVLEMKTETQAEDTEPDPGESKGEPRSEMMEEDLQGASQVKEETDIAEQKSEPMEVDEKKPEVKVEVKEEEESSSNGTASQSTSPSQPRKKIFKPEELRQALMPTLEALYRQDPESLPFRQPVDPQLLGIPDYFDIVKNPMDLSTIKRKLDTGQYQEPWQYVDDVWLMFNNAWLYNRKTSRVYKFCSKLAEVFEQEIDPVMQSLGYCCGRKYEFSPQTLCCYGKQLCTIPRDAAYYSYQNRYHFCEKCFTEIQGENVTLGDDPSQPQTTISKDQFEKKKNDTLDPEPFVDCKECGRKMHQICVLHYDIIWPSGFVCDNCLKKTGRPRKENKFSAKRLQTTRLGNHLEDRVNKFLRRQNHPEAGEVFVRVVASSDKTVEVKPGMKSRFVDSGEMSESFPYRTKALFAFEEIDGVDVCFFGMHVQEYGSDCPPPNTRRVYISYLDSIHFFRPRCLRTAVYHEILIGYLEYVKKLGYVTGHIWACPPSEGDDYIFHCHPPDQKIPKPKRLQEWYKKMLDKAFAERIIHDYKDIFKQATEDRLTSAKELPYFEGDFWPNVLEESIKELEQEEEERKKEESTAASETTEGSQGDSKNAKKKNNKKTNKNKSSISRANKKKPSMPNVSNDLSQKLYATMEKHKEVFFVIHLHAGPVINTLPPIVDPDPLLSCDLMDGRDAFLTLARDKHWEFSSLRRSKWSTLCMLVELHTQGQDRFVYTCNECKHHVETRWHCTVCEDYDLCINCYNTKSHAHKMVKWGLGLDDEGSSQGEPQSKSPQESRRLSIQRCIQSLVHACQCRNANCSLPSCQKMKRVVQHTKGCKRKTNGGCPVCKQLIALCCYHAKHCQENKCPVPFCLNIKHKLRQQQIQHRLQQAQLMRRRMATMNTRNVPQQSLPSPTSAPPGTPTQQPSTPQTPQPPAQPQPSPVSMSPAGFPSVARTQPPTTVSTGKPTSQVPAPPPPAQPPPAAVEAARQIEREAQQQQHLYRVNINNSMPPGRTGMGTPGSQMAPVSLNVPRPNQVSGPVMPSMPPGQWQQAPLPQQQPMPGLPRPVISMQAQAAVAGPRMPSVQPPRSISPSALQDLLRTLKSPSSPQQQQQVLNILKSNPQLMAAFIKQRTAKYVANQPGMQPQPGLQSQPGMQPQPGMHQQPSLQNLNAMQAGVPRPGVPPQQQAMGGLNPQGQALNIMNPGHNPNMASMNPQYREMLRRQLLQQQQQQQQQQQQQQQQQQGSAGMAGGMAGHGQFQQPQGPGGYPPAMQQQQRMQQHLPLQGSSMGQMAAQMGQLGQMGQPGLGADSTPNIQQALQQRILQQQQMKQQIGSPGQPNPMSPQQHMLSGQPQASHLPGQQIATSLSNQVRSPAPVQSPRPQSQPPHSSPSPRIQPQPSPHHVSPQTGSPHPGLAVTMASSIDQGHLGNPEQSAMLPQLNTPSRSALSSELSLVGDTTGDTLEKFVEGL

In series [1], `CC(=O)N1CCc2c(c(Nc3ccc(-c4cnn(C)c4)cc3F)nn2[C@@H]2CCOC2)C1` came in with a fCmax of 26 µM. Also, the INH in series [2], in [3] and in series [4] was greater than 10 µM throughout. The inhibition entry in series [5] and in series [6] was “Active” each time. Besides, the outcome in series [7] and in [8] was Active. Besides, in series [9], the inhibition in vivo at 12.5 mg/kg is 46%. Also, the inhibition in vivo at 50 mg/kg in series [10] is 102%. Besides, the Activity in [11] came to 7.4%.
